In publication PMC8329197, “Compounds targeting OSBPL7 increase ABCA1-dependent cholesterol efflux preserving kidney function in two models of kidney disease” (Nature Communications, 2021):
Several values for one entry are separate records, joined by “and”; a condition that tells them apart may be missing. Equal entries are not always repeated.

Columns and labels:
human THP1 macrophages = experiment: apoAI-mediated (ABCA1) cholesterol efflux from cholesterol-loaded THP1 macrophages; assay type: cell-based; design: ABCA1 Efflux %: dose or concentration left out as unconfirmed
[1] = molecular target: human cannabinoid 1 receptor (hCB1-R) (Homo sapiens, UniProt P21554); experiment: Potency for binding to the CB1R in vitro (Ki); details: human CB1 receptor binding
3A4 = experiment: TDI (3A4) time dependent inhibition; assay type: in vitro ADME
[2] = system: Adriamycin (ADR)-induced nephropathy in Balb/c mice; experiment: ADR nephropathy: immunofluorescence of glomerular ABCA1 and WT1+ podocyte number; assay type: in vivo, mouse; details: for Glomerular ABCA1 mean fluorescence intensity, mean / Number of Podocytes (WT1+ cells in glomeruli), mean / Glomerular ABCA1 mean fluorescence intensity / Number of Podocytes (WT1+ cells in glomeruli): ADR; for Glomerular ABCA1 mean fluorescence intensity, mean / Number of Podocytes (WT1+ cells in glomeruli), mean: group mean; for Glomerular ABCA1 mean fluorescence intensity / Number of Podocytes (WT1+ cells in glomeruli): individual mice
Method: For the detection of ABCA1 expression, 4 μm paraffin kidney cortex sections were deparaffinized and rehydrated. Antigens were retrieved by boiling for 30 min in citrate buffer pH 6.0 (Target Retrieval Solution, Citrate pH 6, Sigma, USA). The sections were permeabilized for 30 min with 0.1% Triton X-100 in TBS. Tissue sections were incubated with 10% goat serum (cat # G9023, Millipore Sigma) and 1% BSA (cat # SP-5050-500, Vector, USA) in TBS-T for 1hr at room temperature to block any non-specific binding. Samples were then incubated overnight at 4 °C with Rat anti-ABCA1 (Novus, 1:200) and Rabbit anti-WT1 (Abcam, 1:200) antibodies in a humidified chamber. After washing extensively, samples were then incubated for 1 h at RT with fluorochrome-conjugated secondary antibodies (Invitrogen, 1:500). Antifade mounting media containing DAPI (Vectashield Plus) was added to the sections before being analyzed.
Images were acquired using a FluoView FV1000 Confocal Microscope (Olympus) with a ×63 oil objective lens in different planes using a Z-series pattern with a step size of 0.18 μm. During analysis, individual planes were deconvoluted and stacked to produce a maximum projected image using fluview software version 4.3b (Olympus). A minimum of 5 images was captured from 5 different fields per sample. Quantification of ABCA1 glomerular mean fluorescence intensity (MFI) was done using Fiji—ImageJ software.

Col4a3 KO mice [3] = experiment: Alport syndrome model: mesangial expansion score in PAS-stained kidney sections; assay type: in vivo, mouse; details: age 8 weeks, Cpd G 100 mg/Kg/day
Method: (§1) Formalin-fixed paraffin-embedded kidney cortex sections 4 μm thick were stained with Periodic acid-Schiff (PAS). The slides were analyzed by a renal pathologist in a double-blind design. Glomerular sclerosis, (global and segmental), podocyte hypertrophy and podocyte hyperplasia were expressed as the percentage of glomeruli found with these abnormalities. Tubular microcysts and interstitial inflammation were scored on a 0–4 scale where 0 = 0%, 0.5 = 1–10%, 1 = 11–25%, 2: 26–50 %, 3: 51–75%, and 4 = more than 75% damage.

Col4a3 KO mice [4] = experiment: Alport syndrome model: kidney cortex cholesterol ester, total cholesterol, triglycerides; assay type: in vivo, mouse
Method: Snap frozen kidney cortex samples were homogenized in 2 mM potassium phosphate buffer, pH 7, (10 µl buffer/mg tissue) using a glass douncer on ice. 100 μl of the homogenate were mixed thoroughly with 1 ml of hexane:isopropanol (3:2;v:v) per volume of tissue homogenate. The aqueous (pellet) and organic (supernatant) phases were separated by centrifugation at 12,000 × g for 5 min. Pellets (aqueous phase) were dried, reconstituted in 8 M urea, 0.1% SDS, 0.1 M NaOH, and total proteins were quantified by the BCA method (Thermofisher). The organic phase was dried by exposure to nitrogen. Lipids were then reconstituted in 100 µl isopropanol:NP-40 (9:1;v:v). Triglyceride content was assayed using a colorimetric kit according to the manufacturer’s instructions (Cayman Chemical USA). Total cholesterol and CE content were assayed using an enzymatic fluorometric method. For total cholesterol measurement, extracts were diluted 1:100 in assay buffer (100 mM potassium phosphate, 50 mM NaCl, 5 mM cholic acid, 0.1% Triton […], pH 7.4) containing cholesterol oxidase (1 U/ml), cholesterol esterase (1 U/ml), horseradish peroxidase (1 U/ml), and Amplex Red (75 µM). The reactions were incubated at 37 °C for 30 min in a black opaque 96-well plate (Greiner) and fluorescence was measured in a microplate reader (Spectramax i3X, Molecular Devices) at 530 nm excitation and 580 emission.
For CE determination, 150 µl of the assay buffer described above, supplemented with bovine liver catalase (45 U/ml) and cholesterol oxidase (1 U/ml), was added to 25 μl of sample and incubated overnight at 37 °C to deplete free cholesterol leaving only cholesterol esters. Then, 75 µl of cholesterol ester detection reagent (1 U/ml cholesterol oxidase, 4 U/ml cholesterol esterase, 24 U/ml horseradish peroxidase, 300 µM Amplex Red) was added. The reaction was incubated at 37 °C for 30 min and the fluorescence signal was measured as described above. Internal standards included samples containing 1 mM of cholesterol and 5 μM of cholesterol oleate in order to verify the completeness of the enzymatic decomposition of free cholesterol as well as assay sensitivity and specificity.

[5] = system: Adriamycin (ADR)-induced nephropathy in Balb/c mice; experiment: ADR nephropathy: blinded histology of PAS-stained kidney sections; assay type: in vivo, mouse
Method: as §1

[6] = Col4a3 KO mice at the age of 8 weeks, individual mouse values
[7] = ADR + Cpd G 100 mg/Kg, single animals
[8] = score 0: 0%, 0.5: 1–10%, 1: 11–25%, 2: 26–50%, 3: 51–75%, 4: >75%, single animals

human cannabinoid 1 receptor (hCB1-R), sequence (P21554 whole entry): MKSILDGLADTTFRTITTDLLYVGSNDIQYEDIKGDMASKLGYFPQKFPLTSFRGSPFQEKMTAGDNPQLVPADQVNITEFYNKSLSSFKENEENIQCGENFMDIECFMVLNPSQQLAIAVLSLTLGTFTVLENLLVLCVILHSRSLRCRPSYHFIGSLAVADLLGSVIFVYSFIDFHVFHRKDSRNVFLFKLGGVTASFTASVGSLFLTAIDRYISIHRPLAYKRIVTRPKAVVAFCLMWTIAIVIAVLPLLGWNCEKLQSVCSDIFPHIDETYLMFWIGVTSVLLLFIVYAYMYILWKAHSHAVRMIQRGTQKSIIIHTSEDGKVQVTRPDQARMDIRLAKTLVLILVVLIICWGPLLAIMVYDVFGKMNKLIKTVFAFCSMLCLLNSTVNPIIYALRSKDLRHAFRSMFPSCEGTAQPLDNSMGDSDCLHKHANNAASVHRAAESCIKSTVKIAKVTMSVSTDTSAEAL

O=C(N[C@@H]1CCCC[C@H]1O)c1ccc(OCC(F)(F)F)c(-c2ccc(Cl)c(Cl)c2)n1 [Cpd A]
ABCA1 percentage of induction, average (human THP1 macrophages; average of 3): 91%
ABCA1 Efflux % (human THP1 macrophages; average(SEM)): 91(4.9) %
ABCA1 percentage of induction (human THP1 macrophages; single experiments (3 per compound)): 81% and 94% and 97%
Ki [1]: > 10 µM

O=C(N[C@@H]1CCCC[C@H]1O)c1cnc(OCC(F)(F)F)c(-c2ccc(Cl)c(Cl)c2)c1 [Cpd G]
TDI (3A4) time dependent inhib (3A4): Negative
Glomerular ABCA1 mean fluorescence intensity, mean ([2]; 30mg/kg): 13.76
Number of Podocytes (WT1+ cells in glomeruli), mean ([2]; 30mg/kg): 9.133
Glomerular ABCA1 mean fluorescence intensity ([2]; 30mg/kg): 13.36 and 14.02 and 13.9
Number of Podocytes (WT1+ cells in glomeruli) ([2]; 30mg/kg): 11 and 9.6 and 6.8
Glomerular ABCA1 mean fluorescence intensity, mean ([2]; 100mg/kg): 20.2467
Number of Podocytes (WT1+ cells in glomeruli), mean ([2]; 100mg/kg): 14.8667
Glomerular ABCA1 mean fluorescence intensity ([2]; 100mg/kg): 19.7 and 21.32 and 19.72
Number of Podocytes (WT1+ cells in glomeruli) ([2]; 100mg/kg): 15.4 and 14.2 and 15
ADR-induced glomerular degeneration with podocyte loss and loss of ABCA1 expression ([2]; immunofluorescence of renal cortex sections): prevented
MESANGIAL EXPANSION (scale 1-5), Median (Col4a3 KO mice [3]): 2
MESANGIAL EXPANSION (scale 1-5) (Col4a3 KO mice [3]; single animals): 2 and 2.5 and 1.5
RENAL CHOL.ESTERS, Median (Col4a3 KO mice [4]; Col4A3 KO mice, treated for 28 days, group median): 2.615 nmol CE/ mg protein
RENAL CHOL.ESTERS (CE normalized to total proteins, kidney) (Col4a3 KO mice [4]; Col4A3 KO mice, treated for 28 days, individual animals): 4.92 nmol CE/ mg protein and 2.49 nmol CE/ mg protein and 0.13 nmol CE/ mg protein and 2.74 nmol CE/ mg protein
Renal Total Cholesterol (Col4a3 KO mice [4]; [6]): 40.2 nmol TC/ mg protein and 29.4 nmol TC/ mg protein and 30.8 nmol TC/ mg protein
Renal Trig. (Col4a3 KO mice [4]; [6]): 89.04 nmol TG/ mg protein and 64.42 nmol TG/ mg protein and 121.19 nmol TG/ mg protein and 83.13 nmol TG/ mg protein
Cholesterol ester content in kidneys (Col4a3 KO mice [4]; Col4a3 KO, Cpd G 28 days): significantly reduced cholesterol ester content
Global glomerular sclerosis (% of gloms with), median ([5]; ADR + Cpd G 100 mg/Kg): 0%
Interstitial Inflammation (scale 0-4), Range ([5]; ADR + Cpd G 100 mg/Kg): 0-0.5
Mesangial expansion (scale 0-5), Range ([5]; ADR + Cpd G 100 mg/Kg): 1-2
Podocyte hyperplasia (% of gloms with), median ([5]; ADR + Cpd G 100 mg/Kg): 0%
Segmental glomerular sclerosis (% of gloms with), median ([5]; ADR + Cpd G 100 mg/Kg): 0%
Tubular microcysts (scale 0-4), Range ([5]; ADR + Cpd G 100 mg/Kg): 0 -1
podocyte hypertrophy (% of gloms with), median ([5]; ADR + Cpd G 100 mg/Kg): 0%
Global Glom. Sclerosis, % of glomeruli with [5, 7]: 0%
Mesangial Expansion (Scale 0-5) [5, 7]: 1.25 and 1.5 and 1
Podocyte Hyperplasia, % of glomeruli with [5, 7]: 0%
Podocyte Hypertrophy, % of glomeruli with [5, 7]: 0%
Segmental Glom. Sclerosis, % of glomeruli with [5, 7]: 0%
Interstitial Inflammation (Scale 0-4) [5, 8]: 0 and 0.5
Tubular Microcysts (Scale 0-4) [5, 8]: 1 and 0 and 0.5
